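Protocol summary: plate cells (96-well), add compound at 5 concentrations, incubate 48 h, interpolate endpoints linearly. Here, GI50 denotes the concentration required for 50% inhibition of growth.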 Active and inactive are the calls of the source. No stated cut-off is given here; in the data, active = GI50 up to about 1.1 µM and inactive = higher.
Experiments:
Assay in all cases: DTP human tumour cell line panel, 48 h
Malme-3M = test system: Malme-3M
NCI-H460 = test system: NCI-H460
Hs-578T = test system: Hs-578T
CAKI-1 = test system: CAKI-1
PC-3 = test system: PC-3
HL-60 = test system: HL-60
RXF 393 = test system: RXF 393
SF-268 = test system: SF-268
SW-620 = test system: SW-620
MDA-MB-435 = test system: MDA-MB-435
NCI-H226 = test system: NCI-H226
T47D = test system: T47D
OVCAR-8 = test system: OVCAR-8
COLO 205 = test system: COLO 205
ACHN = test system: ACHN
TK-10 = test system: TK-10
SF-539 = test system: SF-539
HCT-15 = test system: HCT-15
A498 = test system: A498
IGROV-1 = test system: IGROV-1

| SMILES | GI50 (Malme-3M) | GI50 (NCI-H460) | GI50 (Hs-578T) | GI50 (CAKI-1) | GI50 (PC-3) | GI50 (HL-60) | GI50 (RXF 393) | GI50 (SF-268) | GI50 (SW-620) | GI50 (MDA-MB-435) | GI50 (NCI-H226) | GI50 (T47D) | GI50 (OVCAR-8) | GI50 (COLO 205) | GI50 (ACHN) | GI50 (TK-10) | GI50 (SF-539) | GI50 (HCT-15) [µM] | GI50 (A498) | GI50 (IGROV-1) |
| --- | --- | --- | --- | --- | --- | --- | --- | --- | --- | --- | --- | --- | --- | --- | --- | --- | --- | --- | --- | --- |
| Cc1c(/N=C\c2ccc(N(CCC#N)CCC#N)cc2)c(=O)n(-c2ccccc2)n1C | > 100 µM (inactive) | > 100 µM (inactive) | 38 µM (inactive) | > 100 µM (inactive) | > 100 µM (inactive) | > 100 µM (inactive) | 24 µM (inactive) | 64.6 µM (inactive) | > 100 µM (inactive) | > 100 µM (inactive) | > 100 µM (inactive) | > 100 µM (inactive) | > 100 µM (inactive) | > 100 µM (inactive) | 22.5 µM (inactive) | 24.1 µM (inactive) | 31.6 µM (inactive) | > 100 | 69.2 µM (inactive) | > 93.5 µM (inactive) |
| CCCCCCCC(=O)OC[n+]1ccc(-c2c(COC(=O)NC(C)C)c(COC(=O)NC(C)C)c3n2CCC3)cc1 | 44.9 µM (inactive) | 21.4 µM (inactive) | 52.6 µM (inactive) | 18.6 µM (inactive) | > 65.2 µM (inactive) | 14.8 µM (inactive) | 21.1 µM (inactive) | 25.8 µM (inactive) | 23.2 µM (inactive) | 69 µM (inactive) | > 78.5 µM (inactive) | > 64.9 µM (inactive) | 43.1 µM (inactive) | 48.9 µM (inactive) | 20.4 µM (inactive) | > 67.5 µM (inactive) | 23.1 µM (inactive) | 52.4 | 29.9 µM (inactive) | 31 µM (inactive) |
| COc1ccc(NC(=O)CC(=O)N2N=C(N3CCCCC3)CC2c2ccccc2)cc1 (stereo not given) | > 100 µM (inactive) | > 100 µM (inactive) | > 100 µM (inactive) | > 100 µM (inactive) | > 100 µM (inactive) | > 100 µM (inactive) | > 100 µM (inactive) | > 100 µM (inactive) | > 100 µM (inactive) | > 100 µM (inactive) | > 100 µM (inactive) | > 100 µM (inactive) | > 100 µM (inactive) | > 100 µM (inactive) | > 100 µM (inactive) | > 100 µM (inactive) | > 100 µM (inactive) | > 100 | > 100 µM (inactive) | > 100 µM (inactive) |
| O=C(/C=C1\C[C@H]2C=Nc3ccccc3C(=O)N2C1)NCCCNC(=O)/C=C1\C[C@H]2C=Nc3ccccc3C(=O)N2C1 | 15.9 µM (inactive) | 18.6 µM (inactive) | 32 µM (inactive) | 13.3 µM (inactive) | 17.6 µM (inactive) | 8.73 µM (inactive) | 13.6 µM (inactive) | 16.7 µM (inactive) | 5.51 µM (inactive) | 19.1 µM (inactive) | 20.7 µM (inactive) | 16 µM (inactive) | 18.6 µM (inactive) | 12.9 µM (inactive) | 14.9 µM (inactive) | 19.8 µM (inactive) | 18.3 µM (inactive) | 18.1 | 17.5 µM (inactive) | 17.3 µM (inactive) |

Reference: ChEMBL document CHEMBL1201862, “PubChem BioAssay data set” (2004)
